In PMC7136958, “Targeting the pregnane X receptor using microbial metabolite mimicry” (EMBO Molecular Medicine, 2020):

Legend:
[1] = biological target: T1, PXR (Homo sapiens, UniProt O75469); assay: PXR reporter (p3A4-luc luciferase) assay in LS180 cells transiently transfected with wild-type PXR; conditions: for FOLD INDUCTION of PXR reporter luciferase activity: 24 h, over UT; for fold induction at 0.001 µM / fold induction at 0.01 µM / fold induction at 0.1 µM / fold induction at 1 µM / fold induction at 10 µM / fold induction at 25 µM: LS180, read-out: FOLD INDUCTION of PXR reporter luciferase activity
T1 sequence (O75469 1-434): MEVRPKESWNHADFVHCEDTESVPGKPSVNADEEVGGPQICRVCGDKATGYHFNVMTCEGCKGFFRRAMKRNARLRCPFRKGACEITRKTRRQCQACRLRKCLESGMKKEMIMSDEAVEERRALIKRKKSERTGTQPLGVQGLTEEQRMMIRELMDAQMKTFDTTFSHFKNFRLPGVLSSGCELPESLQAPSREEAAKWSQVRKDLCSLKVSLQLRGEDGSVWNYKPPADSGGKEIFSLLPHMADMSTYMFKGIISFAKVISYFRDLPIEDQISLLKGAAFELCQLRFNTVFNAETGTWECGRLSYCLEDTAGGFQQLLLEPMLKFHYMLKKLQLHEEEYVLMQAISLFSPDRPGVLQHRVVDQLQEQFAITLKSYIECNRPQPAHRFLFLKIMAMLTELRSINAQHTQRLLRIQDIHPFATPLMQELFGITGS
Protocol: Incubations were performed in four technical replicates. After the treatments, cells were lysed and luciferase activity was measured on Tecan Infinite M200 Pro plate reader (Schoeller Instruments, Prague, Czech Republic). The data are expressed as fold induction ± SD of luciferase activity over the control cells (agonistic mode—in the absence of a model ligand) or as a percentage of maximal activation ± SD (antagonistic mode—in the presence of a model ligand). […] For all the transfection experiments, specifically multiplexed transfections, the control wells were mock‐transfected ([…]). However, to exclude non‐specific binding of PXR (or other factors) upstream of the luciferase gene within non‐PXR‐binding elements, we performed pilot experiments in different cell passages (P11, P14, and P17) of LS174T cells using a mock luciferase plasmid (luciferase not containing an upstream PXR‐binding element of the CYP3A4 promoter).

[2] = biological target: T2, AhR (Homo sapiens, UniProt P35869); assay: AhR reporter assay, HepG2 cells stably expressing pCYP1A1 luciferase (AZ-AHR); assay type: cell-based; conditions: AZ-AHR cells, fold vs DMSO; for fold induction at 24 h, 0.001 µM / fold induction at 24 h, 0.01 µM / fold induction at 24 h, 0.1 µM / fold induction at 24 h, 1 µM / fold induction at 24 h, 10 µM: human
T2 construct: endogenous in cells; host or cells: AZ-AHR (HepG2)
T2 sequence (P35869 11-848): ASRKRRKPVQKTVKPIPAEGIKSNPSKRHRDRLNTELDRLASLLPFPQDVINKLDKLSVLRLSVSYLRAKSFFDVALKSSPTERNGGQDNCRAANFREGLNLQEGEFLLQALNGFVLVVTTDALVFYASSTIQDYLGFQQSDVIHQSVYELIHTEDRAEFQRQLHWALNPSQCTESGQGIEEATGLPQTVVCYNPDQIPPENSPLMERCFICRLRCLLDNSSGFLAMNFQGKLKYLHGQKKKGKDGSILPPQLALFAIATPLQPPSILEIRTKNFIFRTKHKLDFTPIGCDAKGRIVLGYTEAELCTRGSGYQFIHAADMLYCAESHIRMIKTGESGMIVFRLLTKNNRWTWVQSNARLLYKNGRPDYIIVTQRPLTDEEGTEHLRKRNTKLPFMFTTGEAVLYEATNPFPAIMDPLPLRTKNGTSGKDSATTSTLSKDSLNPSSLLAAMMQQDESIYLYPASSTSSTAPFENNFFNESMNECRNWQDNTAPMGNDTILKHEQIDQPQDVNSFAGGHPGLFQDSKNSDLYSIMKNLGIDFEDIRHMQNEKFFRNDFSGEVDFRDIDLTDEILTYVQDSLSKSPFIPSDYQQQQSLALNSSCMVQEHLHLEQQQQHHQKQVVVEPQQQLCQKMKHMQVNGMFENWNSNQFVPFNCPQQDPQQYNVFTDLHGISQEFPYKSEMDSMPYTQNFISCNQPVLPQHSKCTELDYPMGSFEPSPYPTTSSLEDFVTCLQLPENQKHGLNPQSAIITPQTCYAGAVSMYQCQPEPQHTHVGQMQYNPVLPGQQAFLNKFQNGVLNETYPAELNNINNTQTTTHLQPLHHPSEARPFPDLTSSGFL
Protocol: Incubations were performed in four technical replicates.

[3] = test system: NF-κB; assay: NF-κB nuclear translocation (immunofluorescence) in Caco-2 cells; assay type: cell-based, human; conditions: 25 μM, with cytokines, 2 or 12 h
Protocol: (§1) HIOs and Caco‐2 were exposed to a pro‐inflammatory cytokine cocktail (10 ng/ml IFN‐γ, 10 ng/ml TNF‐α, 50 ng/ml IL‐1β) for 2–24 h in combination with DMSO or FKK5 and FKK6 compounds (10 and 25 μm). Relative mRNA levels of IL‐8 and IL‐6 were determined using quantitative real‐time PCR, with normalization to GAPDH. RNA was isolated using an RNeasy Mini Kit (Qiagen) as per the manufacturer's instructions. On column DNase (Qiagen) was used to remove any contaminating DNA. Next, cDNA was formed using iScript cDNA Synthesis Kit (Bio‐Rad) and 100 ng RNA. qRT–PCR was performed with SsoAdvanced Universal SYBR Green Kit (Bio‐Rad). The following primers were used: IL‐8 Forward: […]; IL‐8 Reverse: […]; IL‐6 Forward: […]; IL‐6 Reverse: […]; GAPDH Forward: […]; GAPDH Reverse: […]. For immunofluorescent staining of NF‐ĸB translocation to the cell nucleus, HIOs and Caco‐2 cell monolayers were fixed in 4% formaldehyde (in 1 × PBS) overnight at 4°C. The formaldehyde was removed by washing with 1 × PBS, and an antigen retrieval step was performed by incubating in 10 mM sodium citrate buffer in a vegetable steamer for 20 min. The samples were then blocked with normal donkey serum (10% in PBS with 0.3% Triton X‐100) for 1 h. […]

[4] = test system: NF-κB; assay: NF-κB nuclear translocation (immunofluorescence) in human intestinal organoids; assay type: cell-based; conditions: 25 μM, with cytokines
Protocol: as §1

| Structure (SMILES) | aver (mean luciferase signal of H1-H4) ([1]; 1 nM) | aver (mean luciferase signal of H1-H4) ([1]; 10 nM) | aver (mean luciferase signal of H1-H4) ([1]; 100 nM) | aver (mean luciferase signal of H1-H4) ([1]; 1 uM) | aver (mean luciferase signal of H1-H4) ([1]; 10 uM) | aver (mean luciferase signal of H1-H4) ([1]; 25 uM) | fold induction at 0.001 µM [1] | fold induction at 0.01 µM [1] | fold induction at 0.1 µM [1] | fold induction at 1 µM [1] | fold induction at 10 µM [1] | fold induction at 25 µM [1] | fold induction at 24 h, 0.001 µM ([2]; 1 nM) | fold induction at 24 h, 0.01 µM ([2]; 10 nM) | fold induction at 24 h, 0.1 µM ([2]; 100 nM) | fold induction at 24 h, 1 µM ([2]; 1µM) | fold induction at 24 h, 10 µM ([2]; 10 µM) | NF-κB localisation [3] | NF-κB localisation [4] | also measured |
| --- | --- | --- | --- | --- | --- | --- | --- | --- | --- | --- | --- | --- | --- | --- | --- | --- | --- | --- | --- | --- |
| O=S(=O)(c1ccccc1)n1c(C(O)c2ccncc2)cc2ccccc21 (racemic) [FKK1] | 3470.0 | 3768.8 | 3738.8 | 28708.8 | 56319.0 | 51971.3 |  |  |  |  |  |  |  |  |  |  |  |  |  | FOLD INDUCTION of PXR reporter luciferase activity ([1]; 1 nM): 1.6 fold; FOLD INDUCTION of PXR reporter luciferase activity ([1]; 10 nM): 1.8 fold; FOLD INDUCTION of PXR reporter luciferase activity ([1]; 100 nM): 1.7 fold; FOLD INDUCTION of PXR reporter luciferase activity ([1]; 1 uM): 13.4 fold; FOLD INDUCTION of PXR reporter luciferase activity ([1]; 10 uM): 26.3 fold; FOLD INDUCTION of PXR reporter luciferase activity ([1]; 25 uM): 24.3 fold; FOLD INDUCTION (AZ-AHR luciferase) ([2]; 1 nM): 0.7 fold; FOLD INDUCTION (AZ-AHR luciferase) ([2]; 10 nM): 0.746 fold; FOLD INDUCTION (AZ-AHR luciferase) ([2]; 100 nM): 1.1 fold; FOLD INDUCTION (AZ-AHR luciferase) ([2]; 1µM): 0.9 fold; FOLD INDUCTION (AZ-AHR luciferase) ([2]; 10 µM): 2.8 fold |
| C#CCC(O)(c1ccncc1)c1cc2ccccc2n1S(=O)(=O)c1ccccc1 (centres unmarked) [FKK6] | 5692.0 | 9322.0 | 9089.3 | 73854.3 | 113299.3 | 99812.0 | 1.8 | 2.9 | 2.8 | 23.1 | 35.5 | 31.3 | 0.8 | 0.7 | 0.8 | 1.1 | 3.2 | increased cytoplasmic | increased cytoplasmic | PXR activation (in words) ([1]; cell-based transactivation): activated human PXR |
| O=C(c1ccncc1)c1cc2ccccc2n1S(=O)(=O)c1ccccc1 [FKK5, (1-(phenylsulfonyl)-1H-indol-2-yl)(pyridin-4-yl)methanone] | 4417.0 | 4539.3 | 4741.5 | 29157.3 | 116028.0 | 119010.3 | 1.4 | 1.4 | 1.5 | 9.1 | 36.4 | 37.3 | 0.755 | 0.8 | 0.7 | 0.7 | 1.2 | increased cytoplasmic | increased cytoplasmic |  |
